Reference: patent US5582832A, “Compositions for topical application to skin” (priority 1995, dated 1996)

Columns and labels:
Type in all cases: cell-based, human
keratinocytes = assay: Rate of DNA synthesis (3H-thymidine incorporation) in keratinocytes; details: for DNA synthesis, % of control (100 nM 1,25D + 5 uM ceramide Formula A) / DNA synthesis, % of control (azole, only 100 nM 1,25D): Table 4; for DNA synthesis, % of control (100 nM 1,25D + 5 uM ceramide Formula A): 10 uM azole (or no azole) + 100 nM 1,25D + 5 uM ceramide Formula A; for DNA synthesis, % of control (100 nM 1,25D + 5 uM ceramide Formula A) / DNA synthesis / DNA synthesis, % of control (azole, only 100 nM 1,25D): mean + SD; for DNA synthesis, % of control (100 nM 1,25D + 5 uM ceramide Formula A) / keratinocyte DNA synthesis, % of the corresponding controls (10 uM Econazole) / keratinocyte DNA synthesis, % of the corresponding controls (no azole): * = synergistic effect; for keratinocyte DNA synthesis, % of the corresponding controls (1 uM Econazole) / keratinocyte DNA synthesis, % of the corresponding controls (10 uM Econazole) / keratinocyte DNA synthesis, % of the corresponding controls (no azole): Table 5; for keratinocyte DNA synthesis, % of the corresponding controls (1 uM Econazole): 1 uM ceramide + 1 uM Econazole; for keratinocyte DNA synthesis, % of the corresponding controls (1 uM Econazole) / keratinocyte DNA synthesis, % of the corresponding controls (10 uM Econazole) / keratinocyte DNA synthesis, % of the corresponding controls (no azole) / DNA synthesis (% control) / DNA synthesis / DNA synthesis, % of control (azole, only 100 nM 1,25D): 100 nM 1,25D; for keratinocyte DNA synthesis, % of the corresponding controls (10 uM Econazole): 1 uM ceramide + 10 uM Econazole; for keratinocyte DNA synthesis, % of the corresponding controls (no azole): 1 uM ceramide; for DNA synthesis, % of control (azole, only 100 nM 1,25D): 10 uM azole, no ceramide
Description: (§1) 1. Normal human keratinocytes isolated from neonatal foreskins by trypsin treatment were grown in DME medium/10% fetal calf serum in the presence of irradiated 3T3 mouse fibroblasts for establishing dividing keratinocyte colonies. Keratinocytes were grown under the above condition until their third passage.
2. For the experiments, third passage keratinocytes were plated into a serum-free keratinocyte growth medium (KSFM; obtained from Life Technologies, Grand Island, N.Y.) containing 0.09 mM calcium. 20,000 to 30,000 cells were plated into each well of 24 well cell culture plates and grown for 5 days, until the cells reach about 80% confluence.
3. Medium was changed to fresh medium and the various test materials were added to the medium from an ethanolic stock solution (10:00 AM). The final ethanol concentration in the cultures was kept below 0.2%. Control cultures received no tested material but were dosed with 0.2% ethanol. Each compound or combination was tested in three separate wells. By 4:00 PM, 1 uCi of ^3 H-thymidine (Amersham Corp., Sp activity 40 Ci/mmol) was added to the 1 ml medium in each well. The cells were incubated overnight and […] (10:00 AM next day) the amount of ^3 -thymidine associated with the cellular DNA of keratinocytes was assessed as described below.
4. The medium was aspirated, and the wells washed with 1 ml phosphate-buffered saline. The DNA and proteins of the cells in the plate were then precipitated by adding 1 ml of ice-cold 10% trichloroacetic acid (TCA). The plates were left on ice for 30 minutes to complete the precipitation process. TCA was then aspirated and each well was then washed four times with 5% TCA. The plates were then dried on a filter pad and the cells in the wells were dissolved in 0.5 ml of 0.1N sodium hydroxide. The sodium hydroxide was then neutralized using 0.1N hydrochloric acid and the solution (1 ml total volume) was then transferred to a scintillation vial. 50 μl samples from each vial were used for protein assay using BCA protein assay reagent obtained from Pierce Chemical Company. 8 ml of a scintillation fluid (Ecolume) was added to the rest of the solution in the vial, and the vials were counted in a scintillation counter to determine the amount of radioactivity in each vial. The DNA synthesis rate was then calculated as cpm ^3 H thymidine incorporated into total cellular DNA/microgram of cell protein for each individual well. Mean and standard deviation for each group was also calculated.
Rationale for using 1,25D is that in in vivo situation, these azoles will inhibit the endogenous degradation of the 1,25D which is obtained from the circulation. Azoles will act in keratinocytes to increase the endogenous levels of 1,25D within cells. Keratinocytes (70% confluent) were incubated with 10 uM of the different azoles in the presence of 100 nM 1,25D. One of the groups was treated with 5 uM of ceramide of Formula A in the medium. After four hours, all the wells were treated with 1 uCi ^3 H-thymidine and the rate of DNA synthesis was estimated as described in the methods.
Keratinocytes were incubated with 1 or 10 uM of Econazole in the presence of 1 uM of the different ceramide analogues and 100 nM 1,25D in the medium. Thymidine incorporation was measured with an overnight incubation as described in Example 2.

[1] = system: 25D degradation (vitamin D metabolism in keratinocytes); assay: Vitamin D metabolism in keratinocytes: 25D degradation; details: for blocking of 25D degradation (in words) / 25D degradation (%): 1 uM; for blocking of 25D degradation (in words): 20 hours (Table 2); for % degradation (25D): Table 1; for 25D degradation (%): Table 2, 20 hour incubation, mean of duplicate (range); for 25D (% degradation): Table 3, 10 uM
Description: as §1
(§2) 80% confluent keratinocytes were incubated with 0.05 uCi of ^3 H-25D or ^3 H-1,25D for two hours or 20 hours in the presence of 1-100 uM of the different compounds. Reaction was stopped by addition of methanol and the cells and medium were extracted using chloroform:methanol. The chloroform layer was separated, dried and spotted on TLC plates. […] The amount of radioactivity in each lane was quantitated using the BioScan radioactive plate reader. The amount of radioactivity remaining in the peak area of 25D and 1,25D were calculated as % of control. The % remaining was subtracted from 100 to get the % degradation of the metabolites.
(§3) The data are expressed as mean of % degradation of 25D or 1,25D. The range is also given in parenthesis.

[2] = system: 1,25D degradation (vitamin D metabolism in keratinocytes); assay: Vitamin D metabolism in keratinocytes: 1,25D degradation; details: for blocking of 1,25D degradation (in words) / 1,25D degradation (%): 1 uM; for blocking of 1,25D degradation (in words): 20 hours (Table 2); for % degradation (1,25D): Table 1; for 1,25D degradation (%): Table 2, 20 hour incubation, mean of duplicate (range); for 1,25D (% degradation): Table 3, 10 uM
Description: as §1, §2, §3

[3] = Tables 4A-4F, azole 10 uM, ceramide Formula A 5 uM
[4] = Tables 5A-5I, Econazole 10 uM, ceramide analogue 1 uM
[5] = Tables 4A-4F, azole 10 uM, 1440 min

Row | Compound | keratinocyte DNA synthesis, % of the corresponding controls (1 uM Econazole) (keratinocytes) | keratinocyte DNA synthesis, % of the corresponding controls (10 uM Econazole) (keratinocytes) | keratinocyte DNA synthesis, % of the corresponding controls (no azole) (keratinocytes) | DNA synthesis (% control) (keratinocytes; [4]) | DNA synthesis (keratinocytes; [4]) | further results
1 | CCCCCCCCCCCCC/C=C/C(O)C(CO)NC(C)=O (stereo not drawn) [Formula A] | 75.9 + 23.3% | 38.2 + 13.9% | 97 + 32% | 97.7 | 29272 + 11126 cpm 3H thymidine incorporated | DNA synthesis, % of control (100 nM 1,25D + 5 uM ceramide Formula A) (keratinocytes; 1440 min): 81.1 + 16.5 % of control; DNA synthesis (% control) (keratinocytes; Tables 4A-4F, azole 10 uM, ceramide Formula A 5 uM, 1440 min): 74.14 % control; DNA synthesis (keratinocytes; [3]): 108753 + 24719 cpm 3H thymidine incorporated
2 | CCCCCCCCCCCCCCC(O)CN(CCO)C(=O)CCCCC (stereo not drawn) [Formula D] | 97.0 + 19.5% | 28.8 + 3.9% | 69.5 ± 11.3% | 69.5 | 20817 + 3928 cpm 3H thymidine incorporated | growth inhibition by ceramide analogues (in words) (keratinocytes; 1 uM, absence of azole): significantly inhibitory
3 | Clc1ccc(COC(Cn2ccnc2)c2ccc(Cl)cc2Cl)cc1 (stereo not drawn) [Econazole] | – | – | – | 50.5 | 15147 + 4337 cpm 3H thymidine incorporated | blocking of 25D degradation (in words) [1]: very effective; blocking of 25D metabolism (in words) ([1]; 2 hours): ineffective; blocking of 25D metabolism (in words) ([1]; 20 hours): very effective; % degradation (25D) ([1]; 10 uM compound): 5%; 25D degradation (%) [1]: 54.1 (44.3-63.9) %; 25D (% degradation) ([1]; 2 hours): 92%; 25D (% degradation) ([1]; 20 hours): 5%; inhibition of 25D metabolism (in words) ([1]; results of Table 1): most potent; DNA synthesis, % of control (100 nM 1,25D + 5 uM ceramide Formula A) (keratinocytes; 1440 min): 22.5 + 2.4 % of control; DNA synthesis, % of control (azole, only 100 nM 1,25D) (keratinocytes; 1440 min): 64.5 + 3.9 % of control; DNA synthesis (keratinocytes; [3]): 94719 + 5732 cpm 3H thymidine incorporated; DNA synthesis (% control) (keratinocytes; [5]): 64.57 % control; blocking of 1,25D degradation (in words) [2]: very effective; blocking of 1,25D metabolism (in words) ([2]; 2 hours): ineffective; blocking of 1,25D metabolism (in words) ([2]; 20 hours): very effective; % degradation (1,25D) ([2]; 10 uM compound): 2%; 1,25D degradation (%) [2]: 46.8 (45.1-48.6) %; 1,25D (% degradation) ([2]; 2 hours): 78%; 1,25D (% degradation) ([2]; 20 hours): 2%; inhibition of 1,25D metabolism (in words) ([2]; results of Table 1): most potent
4 | CCCCCCCCCCCCC/C=C/C(O)C(CO)NC(=O)CCCCC (stereo not drawn) [Formula B] | 123.9 + 30.3% | 61.7 + 17% | 126.6 ± 17.8% | 126 | 37927 + 6562 cpm 3H thymidine incorporated | –
5 | CCCCCCCCCCCCN(CC(O)CO)C(=O)C(O)CCCCCC (stereo not drawn) [Formula K] | 82.9 + 16.9% | 38.7 + 14.8% | 100.2 ± 9.6% | 80 | 23958 + 5660 cpm 3H thymidine incorporated | –
6 | Cc1ncc(C[n+]2csc(CCO)c2C)c(N)n1 [Thiamine] | – | – | – | – | – | % degradation (25D) ([1]; 100 uM compound): 85%; % degradation (1,25D) ([2]; 100 uM compound): 77%
7 | N[C@@H](Cc1c[nH]c2ccccc12)C(=O)O [L-Tryptophan] | – | – | – | – | – | % degradation (25D) ([1]; 100 uM compound): 83%; % degradation (1,25D) ([2]; 100 uM compound): 100%
8 | CCCCCCCCCCCCCCCCOCC(O)CN(CCO)C(C)=O (stereo not drawn) [Formula E] | 99.8 + 19.1% | 20.5 + 12.9% | 104.3 ± 17.7% | 104.4 | 31267 + 6143 cpm 3H thymidine incorporated | –
9 | CCCCCCCCCCCCCCC(O)CN(CCO)C(C)=O (stereo not drawn) [Formula C] | 78.0 + 15.1% | 47.2 + 33.6% | 77.7 ± 7.4% | 77.7 | 23288 + 2737 cpm 3H thymidine incorporated | –
10 | Clc1ccc(COC(Cn2ccnc2)c2ccc(Cl)cc2Cl)c(Cl)c1 (stereo not drawn) [Miconazole] | – | – | – | – | – | blocking of 25D degradation (in words) [1]: effective with 25D; % degradation (25D) ([1]; 10 uM compound): 54%; 25D degradation (%) [1]: 38.7 (35.4-42.0) %; DNA synthesis, % of control (100 nM 1,25D + 5 uM ceramide Formula A) (keratinocytes; 1440 min): 17.5 + 3.3 % of control; DNA synthesis, % of control (azole, only 100 nM 1,25D) (keratinocytes; 1440 min): 42.8 + 1.8 % of control; DNA synthesis (keratinocytes; [3]): 62806 + 2649 cpm 3H thymidine incorporated; DNA synthesis (% control) (keratinocytes; [5]): 42.8 % control; blocking of 1,25D degradation (in words) [2]: did not block 1,25D degradation; % degradation (1,25D) ([2]; 10 uM compound): 70%; 1,25D degradation (%) [2]: 75.8 (69.9-81.8) %
11 | CCCCCCCCCCCCCCCCN(CC(O)CO)C(C)=O (stereo not drawn) [Formula F] | 84.3 + 1.96% | 40.9 + 9.0% | 90.3 ± 21.4% | 90.3 | 27051 + 7858 cpm 3H thymidine incorporated | –
12 | Nc1nc2ncc(CNc3ccc(C(=O)N[C@@H](CCC(=O)O)C(=O)O)cc3)nc2c(=O)[nH]1 [folic acid] | – | – | – | – | – | % degradation (25D) ([1]; 100 uM compound): 78%; % degradation (1,25D) ([2]; 100 uM compound): 95%
13 | CC1=CC(=O)c2ccccc2C1=O [menadione (vitamin K1), menadione] | – | – | – | – | – | % degradation (25D) ([1]; 100 uM compound): 89%; % degradation (1,25D) ([2]; 100 uM compound): 93%
14 | CCCCCCCCCCCCCCCCN(CC(O)CO)C(=O)CCCCC (stereo not drawn) [Formula G] | 84.8 + 12.7% | 28.2 + 15.2% | 102.8 ± 14.4% | 102.8 | 30794 + 5311 cpm 3H thymidine incorporated | –
